# Data: patent publication US20220370385A1, “COMPOSITIONS FOR USE IN INHIBITING SRC KINASE AND TREATING AND PREVENTING ASSOCIATED DISORDERS” (Enzene Biosciences Ltd., priority 2019, published 2022)
# Entries after “also recorded” stand apart in the source; their conditions may differ.
# Tests used:
# [1] = Maximum tolerated dose study, oral gavage; assay type: in vivo; conditions: Male G4 2000 mg/kg b. wt., single oral gavage
# Procedure: A maximum tolerated dose (MTD) study was carried out with E05. In MTD study, group of 3 male and 3 female rats were dosed at 175 (group 1), 550 (group 2), 1750 (group 3) and 2000 (group 4) mg/kg b. wt.
# [2] = Repeated dose 7-day dose range finding study, intravenous bolus injection; assay type: in vivo; conditions: for Morbidity % / Morbidity No / Mortality % / Mortality No: i.v. bolus 7 days
# Procedure: Repeated dose 7-day dose range finding study (DRF) of E05 through intravenous bolus injection was carried out in Wistar rats.
# [3] = Pharmacokinetic study after single oral administration; assay type: in vivo; conditions: Sprague Dawley, rat, plasma, male rats
# Procedure: A study to determine the pharmacokinetics of E05 after single oral (10 mg/kg) administration in male Sprague Dawley rats was carried out. […] The absolute oral bioavailability of Small molecule was 80% (FIG. 18).
# [4] = Repeated dose 7-day dose range finding study, oral gavage; assay type: in vivo
# Procedure: Repeated dose 7-day dose range finding study (DRF) of E05 through oral gavage was carried out in Wistar rats.
# [5] = tested on: breast cancer cell line BT-474; test: Anti-proliferative activity in BT-474; assay type: cell-based
# MDA-MB-468 = test: Murine xenograft model of Triple-Negative Breast Cancer; assay type: in vivo, SCID mice; conditions: oral, twice daily
# Procedure: Efficacy study of E05 and positive control (5-Fluorouracil) were carried out in a murine xenograft model of Triple-Negative Breast Cancer (MDA-MB-468). Dosing was done as per the Table. 3.
# Female SCID (Severe Combined Immunodeficient) mice were used for this study.
# Approximately 5×10^6 cells in 0.2 mL FBS free medium containing 50% of Matrigel was injected into sub-cutaneous tissue on right flank of each mouse. Treatment with E05 or with positive control was initiated when average tumor volume reaches ˜100 mm3. Tumor volume was measured periodically.
# MDA-MB-468 cells [6] = test: MDA-MB-468 cell viability, CellTiter-Glo, 8 hrs, comparison with lapatinib; assay type: cell-based, human; conditions: MDA-MB-468, within 8 hrs of incubation
# Procedure: (§1) MDA-MB-468 cells (ATCC #HTB-32) were seeded with a density of 5,000 cells per well in a 96 well white plate (Costar Cat #3917) in DMEM media supplemented with 10% FBS (assay medium). The plates were incubated at 37° C., 5% CO2 for 24 hr. E05 and Lapatinib was diluted in the assay medium and added to the respective wells of the assay plates. The plates were further incubated at 37° C., 5% CO2 for 8 hrs. After the incubation, the cell viability was assessed using CellTiter-Glo® and the plates were read for luminescence using Cytation 5 (Biotek). The relative luminescence unit (RLU) obtained was plotted against the concentration and EC50 values were estimated using Graphpad Prism 5 software.
# MDA-MB-468 cells [7] = test: MDA-MB-468 cell viability, CellTiter-Glo, 24 hrs; assay type: cell-based, human; conditions: Homo sapiens, 24 hrs incubation
# Procedure: MDA-MB-468 cells, isolated from a pleural effusion of a patient with metastatic adenocarcinoma of the breast, is a triple negative breast cancer (TNBC) cell line. The IC 50 value of E05 or lapatinib (Sigma) or the structural analogues of E05 were tested in this cell line.
# as §1, with “Briefly, MDA-MB-468” for “MDA-MB-468”, “analogues were” for “Lapatinib was”, “plate.” for “plates.”, “24” for “8”, “software (FIG. 15 and Table 2).” for “software.”
# SRC kinase = target: T1, SRC kinase (Homo sapiens, UniProt P12931); test: Kinase inhibitor screening assay (Promega kinase selectivity profiling, ADP-Glo); assay type: biochemical; design: dose or concentration left out as unconfirmed; conditions: panel of 16 tyrosine kinases
# T1 construct: purchased Promega
# T1 sequence (P12931 whole entry): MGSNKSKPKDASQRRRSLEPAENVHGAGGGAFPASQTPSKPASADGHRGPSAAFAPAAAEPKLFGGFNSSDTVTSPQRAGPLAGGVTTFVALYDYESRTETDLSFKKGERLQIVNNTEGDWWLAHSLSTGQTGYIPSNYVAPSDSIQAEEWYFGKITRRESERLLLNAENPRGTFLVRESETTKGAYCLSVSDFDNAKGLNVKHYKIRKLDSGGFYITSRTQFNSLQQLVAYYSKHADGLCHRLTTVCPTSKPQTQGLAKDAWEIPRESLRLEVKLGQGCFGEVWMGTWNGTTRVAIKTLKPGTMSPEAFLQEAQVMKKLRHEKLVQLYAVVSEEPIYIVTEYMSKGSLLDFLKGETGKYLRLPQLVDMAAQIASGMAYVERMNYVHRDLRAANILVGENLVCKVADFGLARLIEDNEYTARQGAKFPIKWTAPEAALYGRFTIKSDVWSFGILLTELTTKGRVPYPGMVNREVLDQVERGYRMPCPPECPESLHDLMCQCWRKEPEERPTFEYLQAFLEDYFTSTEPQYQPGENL
# Procedure: The kinase selectivity profiling systems from Promega was used to check the inhibitory activity of the purified compound against the broad panel of Tyrosine kinases. The kinase selectivity assays were assembled in a 384-well plate using 1 μl of the purified compound ([…]), 2 μl of each kinase working stock and 2 μl of the corresponding ATP/Substrate working stock as per the manufacturer protocol and kinase activity was quantified using the ADP-Glo™ kinase assay from Promega. The reaction assembled with kinase and corresponding ATP/Substrate without the purified compound was used as a positive control.
# [8] = tested on: colon cancer cell line HCT116; test: Anti-proliferative activity in HCT116; assay type: cell-based
# [9] = Female G2 250 mg/kg b. wt., oral gavage 7 days
# [10] = Female G3 500 mg/kg b. wt., oral gavage 7 days
# [11] = Female G4 1000 mg/kg b. wt., oral gavage 7 days
# [12] = Male G2 250 mg/kg b. wt., oral gavage 7 days
# [13] = Male G3 500 mg/kg b. wt., oral gavage 7 days
# [14] = Male G4 1000 mg/kg b. wt., oral gavage 7 days
compound,measurement,setting,value
"O=C(O)CCc1ccc(O)c(O)c1 [E05, 3-(3,4-Dihydroxyphenyl) propanoic acid]",Mortality on Experimental Day 4,[1],0
same,Morbidity %,[2]; Female G2 125 mg/kg b. wt,0%
same,Morbidity No,[2]; Female G2 125 mg/kg b. wt,0
same,Mortality %,[2]; Female G2 125 mg/kg b. wt,0%
same,Mortality No,[2]; Female G2 125 mg/kg b. wt,0
same,Morbidity %,[2]; Female G3 250 mg/kg b. wt,0%
same,Morbidity No,[2]; Female G3 250 mg/kg b. wt,0
same,Mortality %,[2]; Female G3 250 mg/kg b. wt,0%
same,Mortality No,[2]; Female G3 250 mg/kg b. wt,0
same,Morbidity %,[2]; Female G4 500 mg/kg b. wt,0%
same,Morbidity No,[2]; Female G4 500 mg/kg b. wt,0
same,Mortality %,[2]; Female G4 500 mg/kg b. wt,0%
same,Mortality No,[2]; Female G4 500 mg/kg b. wt,0
same,Morbidity %,[2]; Male G2 125 mg/kg b. wt,0%
same,Morbidity No,[2]; Male G2 125 mg/kg b. wt,0
same,Mortality %,[2]; Male G2 125 mg/kg b. wt,0%
same,Mortality No,[2]; Male G2 125 mg/kg b. wt,0
same,Morbidity %,[2]; Male G3 250 mg/kg b. wt,0%
same,Morbidity No,[2]; Male G3 250 mg/kg b. wt,0
same,Mortality %,[2]; Male G3 250 mg/kg b. wt,0%
same,Mortality No,[2]; Male G3 250 mg/kg b. wt,0
same,Morbidity %,[2]; Male G4 500 mg/kg b. wt,0%
same,Morbidity No,[2]; Male G4 500 mg/kg b. wt,0
same,Mortality %,[2]; Male G4 500 mg/kg b. wt,0%
same,Mortality No,[2]; Male G4 500 mg/kg b. wt,0
same,systemic toxicity,"[2]; up to 500 mg/kg b. wt., daily intravenous bolus, 7 consecutive days",did not produce any systemic toxicity
same,bioavailability,"[3]; oral 10 mg/kg, read-out: absolute oral bioavailability",80%
same,AUC(0-t),[3]; single oral gavage 10 mg/kg,151 ng·h/mL
same,Cmax,[3]; single oral gavage 10 mg/kg,306 ng/mL
same,Tmax,"[3]; single oral gavage 10 mg/kg, read-out: mean time to reach peak plasma concentration (Tmax)",15 min
same,Morbidity %,[4]; [9],0%
same,Morbidity No,[4]; [9],0
same,Mortality %,[4]; [9],0%
same,Mortality No,[4]; [9],0
same,Morbidity %,[4]; [10],0%
same,Morbidity No,[4]; [10],0
same,Mortality %,[4]; [10],0%
same,Mortality No,[4]; [10],0
same,Morbidity %,[4]; [11],0%
same,Morbidity No,[4]; [11],0
same,Mortality %,[4]; [11],0%
same,Mortality No,[4]; [11],0
same,Morbidity %,[4]; [12],0%
same,Morbidity No,[4]; [12],0
same,Mortality %,[4]; [12],0%
same,Mortality No,[4]; [12],0
same,Morbidity %,[4]; [13],0%
same,Morbidity No,[4]; [13],0
same,Mortality %,[4]; [13],0%
same,Mortality No,[4]; [13],0
same,Morbidity %,[4]; [14],0%
same,Morbidity No,[4]; [14],0
same,Mortality %,[4]; [14],0%
same,Mortality No,[4]; [14],0
same,"food consumption, organ weight and relative organ weight","[4]; male and female rats, oral gavage 7 days",No treatment-related changes
same,"mortality, morbidity or clinical sign","[4]; rat, in vivo, po","no mortality, morbidity or clinical sign"
same,toxicity,"[4]; up to 1000 mg/kg b. wt., orally through gavage, 7 consecutive days",did not produce any toxicity
same,inhibition of growth,[5],dose dependent response; also recorded: dose dependent inhibition of growth
same,efficacy in the murine xenograft model of TNBC,MDA-MB-468; 6 weeks,statistically significant efficacy
same,tumor volumes,"MDA-MB-468; 6 weeks, 75, 200, 500 mg/kg",Dose dependent decrease in tumor volumes
same,inhibition compared with lapatinib,MDA-MB-468 cells [6],stronger inhibition in compare to lapatinib
same,EC50,MDA-MB-468 cells [7],86.1 µM
same,SRC kinase activity,SRC kinase,inhibited
same,inhibition of growth,[8],dose dependent response; also recorded: dose dependent inhibition of growth
